# Test results published in US20240246937A1 (MERCK SHARP & DOHME LLC, priority 2021, published 2024).
# Target: recombinant IL4I1 (Homo sapiens (Human), UniProt Q96RQ9)
# Test: IL4I1 Enzymatic Assay (Amplex Red/HRP coupled fluorescence detection of H2O2)
# Type: biochemical
# Details: 240 min; recombinant IL4I1, four-hour pre-incubation with compound
# How it was run: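 Ten-point, 1:3 compound titrations were fitted by four-parameter sigmoidal regression to give EC50. Resorufin fluorescence (544/590 nm) from Amplex Red/HRP-coupled H2O2 detection was read 120 min after adding 1 mM each aromatic amino acid to 1 nM IL4I1, following a 4 h compound pre-incubation in pH 7.0 Hepes buffer.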
# Sequence of recombinant IL4I1 (Q96RQ9 22-567): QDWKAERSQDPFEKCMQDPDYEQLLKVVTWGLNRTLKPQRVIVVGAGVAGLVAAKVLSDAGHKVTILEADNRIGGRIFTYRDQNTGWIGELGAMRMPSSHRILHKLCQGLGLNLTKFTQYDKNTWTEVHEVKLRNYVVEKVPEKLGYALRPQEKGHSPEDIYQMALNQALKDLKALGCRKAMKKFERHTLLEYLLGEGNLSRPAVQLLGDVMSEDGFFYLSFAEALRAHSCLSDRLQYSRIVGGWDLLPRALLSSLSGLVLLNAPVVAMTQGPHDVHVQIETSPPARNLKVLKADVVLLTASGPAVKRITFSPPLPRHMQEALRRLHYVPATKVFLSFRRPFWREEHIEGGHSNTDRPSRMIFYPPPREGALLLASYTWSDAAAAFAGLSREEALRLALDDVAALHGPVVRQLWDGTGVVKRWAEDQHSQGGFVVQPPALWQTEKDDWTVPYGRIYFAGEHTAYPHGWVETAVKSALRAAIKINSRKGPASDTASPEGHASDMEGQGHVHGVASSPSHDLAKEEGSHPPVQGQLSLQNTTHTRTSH
row,SMILES,EC50 [nM]
1,"O=c1c(=O)n(C2CCCC2)ccn1Cc1cnc(-c2ccccc2)cn1 [Example 126, 1-cyclopentyl-4-((5-phenylpyrazin-2-yl)methyl)-1,4-dihydropyrazine-2,3-dione]",3
2,"O=c1c(=O)n(C2CCC2)ccn1Cc1cnc(-c2ccccc2)cn1 [Example 127, 1-cyclobutyl-4-((5-phenylpyrazin-2-yl)methyl)-1,4-dihydropyrazine-2,3-dione]",3
3,"O=c1c(=O)n([C@H]2C[C@H]3C[C@H]3C2)ccn1Cc1cnc(-c2ccccc2)c(F)c1 [Example 128, 1-((cis)-bicyclo[3.1.0]hexan-3-yl)-4-((5-fluoro-6-phenylpyridin-3-yl)methyl)-1,4-dihydropyrazine-2,3-dione]",2
4,"O=C1C(=O)N([C@H]2C[C@H]3C[C@H]3C2)CCN1Cc1cnc(-c2ccccc2)cn1 [Example 129, 1-((cis)-bicyclo[3.1.0]hexan-3-yl)-4-((5-phenylpyrazin-2-yl)methyl)piperazine-2,3-dione]",6
5,"O=c1c(=O)n(C2CCC2)ccn1Cc1cnc(-c2ccccc2)nc1 [Example 130, 1-cyclobutyl-4-((2-phenylpyrimidin-5-yl)methyl)-1,4-dihydropyrazine-2,3-dione]",5
6,"O=C1C(=O)N([C@H]2C[C@H]3C[C@H]3C2)CCN1Cc1cnc(-c2ccccc2)c(F)c1 [Example 131, 1-((cis)-bicyclo[3.1.0]hexan-3-yl)-4-((5-fluoro-6-phenylpyridin-3-yl)methyl)piperazine-2,3-dione]",9
7,"O=C1C(=O)N(C2CCCC2)CCN1CC12CC(c3ccccc3)(C1)C2 [Example 132, 1-cyclopentyl-4-((3-phenylbicyclo[1.1.1]pentan-1-yl)methyl)piperazine-2,3-dione]",15
8,"O=C1C(=O)N(C2CCC2)CCN1Cc1ccc(-n2nccn2)cn1 [Example 136, 1-((5-(2H-1,2,3-triazol-2-yl)pyridin-2-yl)methyl)-4-cyclobutylpiperazine-2,3-dione]",20
9,"O=C1C(=O)N(C2CCC2)CCN1Cc1cc(-c2ccccn2)on1 [Example 138, 1-cyclobutyl-4-((5-(pyridin-2-yl)isoxazol-3-yl)methyl)piperazine-2,3-dione]",12
10,"O=C1C(=O)N(C2CCCC2)CCN1Cc1ncc(-c2nccs2)cc1F [Example 139, 1-cyclopentyl-4-((3-fluoro-5-(thiazol-2-yl)pyridin-2-yl)methyl)piperazine-2,3-dione]",26
11,"O=C1C(=O)N(C2CCCC2)CCN1Cc1ccc(-n2nccn2)cc1 [Example 140, 1-(4-(2H-1,2,3-triazol-2-yl)benzyl)-4-cyclopentylpiperazine-2,3-dione]",36
12,"O=C1C(=O)N(C2CC(c3ccccc3)C2)CCN1Cc1ncc(-c2ccccc2)cn1 (stereo not drawn) [Example 141, 1-(3-phenylcyclobutyl)-4-((5-phenylpyrimidin-2-yl)methyl)piperazine-2,3-dione]",23
13,"O=C1C(=O)N(C2CC(c3ccccc3)C2)CCN1Cc1ccc(-c2ccccc2)nc1 (stereo not drawn) [Example 142, 1-(3-phenylcyclobutyl)-4-((6-phenylpyridin-3-yl)methyl)piperazine-2,3-dione]",3
14,"O=c1c(=O)n(C2CCC2)ccn1Cc1ncc(-c2ccccc2)cn1 [Example 143, 1-cyclobutyl-4-((5-phenylpyrimidin-2-yl)methyl)-1,4-dihydropyrazine-2,3-dione]",15
15,"O=C1C(=O)N(C23CC(C2)C3)CCN1Cc1cc(-c2ccccc2)on1 [Example 146, 1-(bicyclo[1.1.1]pentan-1-yl)-4-((5-phenylisoxazol-3-yl)methyl)piperazine-2,3-dione]",3
16,"O=C1C(=O)N(C2CCC2)CCN1Cc1cc(-c2ccccc2)no1 [Example 148, 1-cyclobutyl-4-((3-phenylisoxazol-5-yl)methyl)piperazine-2,3-dione]",2
17,"O=C1C(=O)N(C2CCC2)CCN1Cc1cc(-c2ccccc2F)no1 [Example 149, 1-cyclobutyl-4-((3-(2-fluorophenyl)isoxazol-5-yl)methyl)piperazine-2,3-dione]",3
18,"O=C1C(=O)N(C2CCC2)CCN1Cc1cc(-c2ccc(F)cc2)no1 [Example 150, 1-cyclobutyl-4-((3-(4-fluorophenyl)isoxazol-5-yl)methyl)piperazine-2,3-dione]",3
19,"O=C1C(=O)N(C2CCCC2)CCN1Cc1cc(-c2cccc(F)c2)no1 [Example 153, 1-cyclopentyl-4-((3-(3-fluorophenyl)isoxazol-5-yl)methyl)piperazine-2,3-dione]",3
20,"O=C1C(=O)N(C2CCCC2)CCN1Cc1cc(-c2ccccc2F)no1 [Example 154, 1-cyclopentyl-4-((3-(2-fluorophenyl)isoxazol-5-yl)methyl)piperazine-2,3-dione]",3
21,"O=c1c(=O)n(C2CCCC2)ccn1Cc1cc(-c2ccccc2F)no1 [Example 156, 1-cyclopentyl-4-((3-(2-fluorophenyl)isoxazol-5-yl)methyl)-1,4-dihydropyrazine-2,3-dione]",2
22,"O=C1C(=O)N(C2CCC2)CCN1Cc1cc(-c2cccc(F)c2)no1 [Example 158, 1-cyclobutyl-4-((3-(3-fluorophenyl)isoxazol-5-yl)methyl)piperazine-2,3-dione]",4
23,"O=c1c(=O)n(C2CCC2)ccn1Cc1cnn(-c2ccccc2)c1 [Example 160, 1-cyclobutyl-4-((1-phenyl-1H-pyrazol-4-yl)methyl)-1,4-dihydropyrazine-2,3-dione]",5
24,"O=c1c(=O)n(C2CCC2)ccn1Cc1cc(-c2ccccn2)no1 [Example 161, 1-cyclobutyl-4-((3-(pyridin-2-yl)isoxazol-5-yl)methyl)-1,4-dihydropyrazine-2,3-dione]",5
25,"O=C1C(=O)N(C2CCCC2)CCN1Cc1cc(-c2ccc(F)cc2)no1 [Example 162, 1-cyclopentyl-4-((3-(4-fluorophenyl)isoxazol-5-yl)methyl)piperazine-2,3-dione]",4
26,"O=c1c(=O)n(C2CCCC2)ccn1Cc1cc(-c2ccccn2)no1 [Example 163, 1-cyclopentyl-4-((3-(pyridin-2-yl)isoxazol-5-yl)methyl)-1,4-dihydropyrazine-2,3-dione]",6
27,"CC1(N2CCN(Cc3cc(-c4ccccc4)on3)C(=O)C2=O)CCC1 [Example 167, 1-(1-methylcyclobutyl)-4-((5-phenylisoxazol-3-yl)methyl)piperazine-2,3-dione]",9

# Second part, the compound after the results:
row,EC50 [nM],SMILES
1,6,"O=C1C(=O)N(C2CCC2)CCN1Cc1nnc(-c2ccccc2)s1 [Example 135, 1-cyclobutyl-4-((5-phenyl-1,3,4-thiadiazol-2-yl)methyl)piperazine-2,3-dione]"
2,6,"O=c1c(=O)n(C2CCC2)ccn1Cc1ccc(-c2ccccc2)nn1 [Example 137, 1-cyclobutyl-4-((6-phenylpyridazin-3-yl)methyl)-1,4-dihydropyrazine-2,3-dione]"
3,2,"O=c1c(=O)n(C23CC(C2)C3)ccn1Cc1nnc(-c2cccc(F)c2)s1 [Example 144, 1-(bicyclo[1.1.1]pentan-1-yl)-4-((5-(3-fluorophenyl)-1,3,4-thiadiazol-2-yl)methyl)-1,4-dihydropyrazine-2,3-dione]"
4,1,"O=c1c(=O)n(C2CCCC2)ccn1Cc1nnc(-c2cccc(F)c2)s1 [Example 145, 1-cyclopentyl-4-((5-(3-fluorophenyl)-1,3,4-thiadiazol-2-yl)methyl)-1,4-dihydropyrazine-2,3-dione]"
5,2,"O=c1c(=O)n(C23CC(C2)C3)ccn1Cc1cc(-c2ccccc2)on1 [Example 147, 1-(bicyclo[1.1.1]pentan-1-yl)-4-((5-phenylisoxazol-3-yl)methyl)-1,4-dihydropyrazine-2,3-dione]"
6,1,"O=c1c(=O)n(C2CCC2)ccn1Cc1cc(-c2ccccc2)no1 [Example 151, 1-cyclobutyl-4-((3-phenylisoxazol-5-yl)methyl)-1,4-dihydropyrazine-2,3-dione]"
7,2,"O=c1c(=O)n(C2CCC2)ccn1Cc1cc(-c2ccccc2F)no1 [Example 152, 1-cyclobutyl-4-((3-(2-fluorophenyl)isoxazol-5-yl)methyl)-1,4-dihydropyrazine-2,3-dione]"
8,2,"O=c1c(=O)n(C2CCCC2)ccn1Cc1cc(-c2cccc(F)c2)no1 [Example 155, 1-cyclopentyl-4-((3-(3-fluorophenyl)isoxazol-5-yl)methyl)-1,4-dihydropyrazine-2,3-dione]"
9,1,"O=c1c(=O)n(C2CCC2)ccn1Cc1cc(-c2cccc(F)c2)no1 [Example 157, 1-cyclobutyl-4-((3-(3-fluorophenyl)isoxazol-5-yl)methyl)-1,4-dihydropyrazine-2,3-dione]"
10,1,"O=c1c(=O)n(C2CCC2)ccn1Cc1cc(-c2ccc(F)cc2)no1 [Example 159, 1-cyclobutyl-4-((3-(4-fluorophenyl)isoxazol-5-yl)methyl)-1,4-dihydropyrazine-2,3-dione]"
11,1,"O=c1c(=O)n(C2CCCC2)ccn1Cc1cc(-c2ccc(F)cc2)no1 [Example 164, 1-cyclopentyl-4-((3-(4-fluorophenyl)isoxazol-5-yl)methyl)-1,4-dihydropyrazine-2,3-dione]"
12,12,O=c1c(=O)n(C2CCC2)ccn1Cc1cc(-c2ccccc2)ns1 [Example 165]
13,10,"CC1(N2CCN(Cc3nnc(-c4ccccc4)s3)C(=O)C2=O)CCC1 [Example 166, 1-(1-methylcyclobutyl)-4-((5-phenyl-1,3,4-thiadiazol-2-yl)methyl)piperazine-2,3-dione]"
14,6,"O=c1c(=O)n(C2CCC2)ccn1Cc1cc(-c2ccccc2)n[nH]1 [Example 168, 1-cyclobutyl-4-((3-phenyl-1H-pyrazol-5-yl)methyl)-1,4-dihydropyrazine-2,3-dione]"
15,7,"O=c1c(=O)n(C23CC(C2)C3)ccn1Cc1cc(-c2ccccn2)on1 [Example 169, 1-(bicyclo[1.1.1]pentan-1-yl)-4-((5-(pyridin-2-yl)isoxazol-3-yl)methyl)-1,4-dihydropyrazine-2,3-dione]"
